Tests used:
[1] = Phase 1 clinical trials in healthy volunteers (PK, safety); format: in vivo, human; settings: 126 healthy volunteers
MPC = molecular target: T1, MPC (Homo sapiens, UniProt O95563+Q9Y5U8); test: Relative binding affinity for the MPC (FIG. 8)
T1 sequence (Q9Y5U8 1-109): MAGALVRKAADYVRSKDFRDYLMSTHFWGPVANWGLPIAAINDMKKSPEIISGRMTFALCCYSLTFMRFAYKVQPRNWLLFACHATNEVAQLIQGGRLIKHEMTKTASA
T1 sequence (O95563 1-127): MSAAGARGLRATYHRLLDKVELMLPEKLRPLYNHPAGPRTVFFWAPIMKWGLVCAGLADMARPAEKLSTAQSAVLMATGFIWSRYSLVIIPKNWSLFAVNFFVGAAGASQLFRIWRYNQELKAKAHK

[2] = system: diet-induced obese (60% HF diet) LS-MPC2−/− and WT (fl/fl) mice; test: Single gavage dose in diet-induced obese WT and LS-MPC2−/− mice: GTT, plasma insulin, plasma ALT, liver qPCR; format: in vivo; settings: for glucose tolerance (GTT): 20 h after a single dose of 30 mg/kg
Protocol: 8 week old WT and LS-MPC2−/− mice were fed a diet of 60% fat (Research Diets D12492) for 20 weeks to induce obesity and insulin resistance. Intraperitoneal glucose tolerance tests (GTT) were performed after a 4 h fast by injection of 1 g/kg D-glucose in saline i.p. to assess glucose tolerance. 3 days after the initial GTT, mice were randomized to receive a single gavage of either vehicle (1% CMC, 0.01% Tween-80) or 30 mg/kg MSDC-0602K. Plasma insulin was measured by Singulex assay and plasma ALT levels were measured by commercially-available kits (Teco Diagnostics). qPCR was performed by isolation of total RNA with RNA-Bee and reverse transcription with a high-capacity cDNA synthesis kit (Invitrogen). qPCR was performed on an Applied Biosystems real-time thermocycler.
WT (fl/fl) and LS-MPC2−/− mice were put on 60% HF diet and became equally obese. […] (FIGS. 1A-1C).

[3] = system: mouse model of NASH (HTF-C diet); test: NASH (HTF-C) diet mice: serum small RNA sequencing; format: in vivo; settings: HTF-C diet containing 331 ppm
Protocol: To begin evaluating the exosome cargo of MSDC-0602K-treated mice, WT mice were fed with either a low fat (LF) control diet (Research Diets D09100304) or high trans-fat, fructose, cholesterol (HTF-C) diet composed of 40% trans-fat, 20% fructose, 2% cholesterol (Research Diets D09100301).
Total RNA was isolated from 400 μL of serum and small RNA sequencing was performed by adapter ligation, cDNA synthesis and size selection of 145-160 base pairs. Sequencing was then performed on an Illumina HiSeq3000.
Heat map miRNAs (˜230 miRNAs) were selected by filtering data for 2-fold or greater change and FDR<0.1 comparing LF to HTF-C diet (not shown). […] Dysregulation of a number of these miRNAs has been previously identified in liver or other fibrotic diseases.

PPARγ = molecular target: T2, PPARγ (Homo sapiens, UniProt P37231); test: Relative binding affinity for PPARγ (FIG. 7)
T2 sequence (P37231 1-505): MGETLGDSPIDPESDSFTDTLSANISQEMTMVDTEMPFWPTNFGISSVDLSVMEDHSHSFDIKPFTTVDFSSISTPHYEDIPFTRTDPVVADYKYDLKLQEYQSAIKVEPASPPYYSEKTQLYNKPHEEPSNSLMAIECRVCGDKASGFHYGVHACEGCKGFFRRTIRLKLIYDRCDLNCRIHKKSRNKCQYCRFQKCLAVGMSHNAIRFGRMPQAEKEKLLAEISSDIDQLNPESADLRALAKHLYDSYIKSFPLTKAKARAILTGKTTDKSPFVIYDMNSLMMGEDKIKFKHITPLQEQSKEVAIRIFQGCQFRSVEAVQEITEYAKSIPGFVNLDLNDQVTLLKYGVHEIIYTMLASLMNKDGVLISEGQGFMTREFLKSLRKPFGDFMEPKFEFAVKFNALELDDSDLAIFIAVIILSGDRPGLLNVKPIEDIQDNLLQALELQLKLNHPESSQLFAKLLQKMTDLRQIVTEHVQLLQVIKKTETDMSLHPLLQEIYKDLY

[4] = Exposure of parent and metabolite; bioavailability of potassium salt vs free acid; settings: in vivo

Row | SMILES | deaths, serious or severe adverse events, discontinuations due to adverse events [1] | binding to the MPC (MPC) | glucose tolerance (GTT) ([2]; LS-MPC2−/− mice) | beneficial effects on markers of liver injury ([2]; LS-MPC2−/− mice, acute treatment) | glucose tolerance (GTT) ([2]; WT mice) | gene expression for hepatic stellate cell activation and fibrotic scar formation ([2]; WT mice, single dose) | plasma ALT concentrations ([2]; WT mice, single dose) | plasma insulin values ([2]; both WT and LS-MPC2−/− mice, single dose 30 mg/kg) | serum miRNAs altered in a mouse model of NASH [3] | reduction in binding affinity for PPARγ compared to pioglitazone (PPARγ) | share of the combined exposure [4]
1 | COc1cccc(C(=O)COc2ccc(CC3SC(=O)NC3=O)cc2)c1 (stereo not drawn) [MSDC-0602] | abdominal bloating. No deaths, serious adverse events, severe adverse | maintain, and in some cases improve | no improvement in glucose tolerance | refractory | improved glucose tolerance | decreased gene expression | decreased plasma ALT concentrations | decreased | largely corrected | – | –
2 | COc1cccc(C(O)COc2ccc(CC3SC(=O)NC3=O)cc2)c1 (stereo not drawn) [primary metabolite of MSDC-0602] | – | maintain, and in some cases improve | – | – | – | – | – | – | – | more than fifty-fold | more than 90%

Source: patent publication US20240216344A1, “THIAZOLIDINEDIONE ANALOGS FOR THE TREATMENT OF NAFLD AND METABOLIC DISEASES” (Cirius Therapeutics, Inc., priority 2019, published 2024)
